In US20160214956A1, “NOVEL SOLUBLE GUANYLATE CYCLASE ACTIVATORS AND THEIR USE” (GLAXOSMITHKLINE INTELLECTUAL PROPERTY DEVELOPMENT LIMITED, priority 2013, published 2016):

What follows are compounds tested against T1, human sGC (Homo sapiens, UniProt Q02153) (assay: sGC enzyme assay, fluorescence polarisation of labelled cGMP). Details: human sGC 1 nM, FP assay; concentration able to increase by 5-fold basal cGMP.
T1 sequence (Q02153 1-619): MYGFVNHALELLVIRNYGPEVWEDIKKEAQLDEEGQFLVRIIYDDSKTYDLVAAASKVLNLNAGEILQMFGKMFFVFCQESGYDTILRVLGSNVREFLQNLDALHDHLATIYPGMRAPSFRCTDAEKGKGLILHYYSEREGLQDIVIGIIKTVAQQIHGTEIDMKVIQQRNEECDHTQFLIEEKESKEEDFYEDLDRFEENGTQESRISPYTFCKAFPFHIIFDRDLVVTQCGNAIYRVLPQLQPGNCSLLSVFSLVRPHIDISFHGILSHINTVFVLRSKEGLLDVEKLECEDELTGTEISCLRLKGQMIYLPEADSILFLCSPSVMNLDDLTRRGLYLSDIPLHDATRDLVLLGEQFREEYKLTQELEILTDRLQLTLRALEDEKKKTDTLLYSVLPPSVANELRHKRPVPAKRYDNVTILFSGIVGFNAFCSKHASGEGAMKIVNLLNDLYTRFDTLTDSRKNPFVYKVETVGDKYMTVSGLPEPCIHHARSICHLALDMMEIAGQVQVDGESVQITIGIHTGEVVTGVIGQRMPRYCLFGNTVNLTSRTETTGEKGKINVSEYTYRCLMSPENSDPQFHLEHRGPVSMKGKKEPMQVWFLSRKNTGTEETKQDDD
T1 sequence (Q02108 1-690 partner): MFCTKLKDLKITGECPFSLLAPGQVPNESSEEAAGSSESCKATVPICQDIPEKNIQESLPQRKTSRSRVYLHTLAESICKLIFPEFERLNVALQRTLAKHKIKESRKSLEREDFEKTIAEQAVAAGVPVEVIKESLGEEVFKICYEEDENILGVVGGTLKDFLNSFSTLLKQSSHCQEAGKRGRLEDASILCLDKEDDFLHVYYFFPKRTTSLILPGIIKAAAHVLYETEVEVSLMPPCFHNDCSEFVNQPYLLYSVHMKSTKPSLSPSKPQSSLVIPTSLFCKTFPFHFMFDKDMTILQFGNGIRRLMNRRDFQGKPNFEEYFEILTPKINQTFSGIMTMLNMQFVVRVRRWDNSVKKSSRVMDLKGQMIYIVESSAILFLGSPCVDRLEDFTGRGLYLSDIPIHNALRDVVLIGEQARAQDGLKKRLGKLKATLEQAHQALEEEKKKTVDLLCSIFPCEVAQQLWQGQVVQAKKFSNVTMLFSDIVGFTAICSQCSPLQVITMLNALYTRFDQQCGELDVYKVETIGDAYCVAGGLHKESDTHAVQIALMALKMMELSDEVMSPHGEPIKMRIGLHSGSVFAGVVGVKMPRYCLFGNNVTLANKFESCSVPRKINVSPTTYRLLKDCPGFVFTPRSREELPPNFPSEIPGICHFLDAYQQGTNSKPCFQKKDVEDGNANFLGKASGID
Format: biochemical
Description: The activity of soluble guanylate cyclase (sGC) was tested in an assay based on measuring the fluorescent polarisation (FP) signal of fluorescently labelled cGMP. FP increased on interaction with an anti-cGMP antibody as the motility of the molecule was reduced. Newly produced cGMP displaced the interaction giving rise to a decrease in polarisation and FP signal which was equated to enzyme activity. Compounds were incubated with human sGC, anti-cGMP antibody, the GTP substrate and fluorescently labelled cGMP. After a period of one hour the assay was stopped with the addition of EDTA and after a further hour the assay was read.
Human sGC was thawed and resuspended in assay buffer (100 mM TRIS, 10 mM MgCl2, 0.2 mM Tween 20, pH7.4, containing 1:100 dilution of sheep anti-cGMP) to give final concentration of 1 nM in the well. A substrate solution was prepared containing GTP and 8-fluo-cGMP in de-ionized water to a final concentration of 25 μM and 50 nM respectively. Assay plates containing 5 μL of various test compounds and of a standard agonist (50 μM-50 nM) in 1% DMSO as 6 point, four fold dilutions across a 96 well plate were used in the assay. The plate also contained 6 wells of DMSO (1%) to produce high control and a cGMP standard curve (14 nM to 10 μM) to convert FP data to cGMP concentration. 25 μL of enzyme mix and 20 μl of substrate mix described above were added to each well of the plate. Samples were mixed on an orbital shaker and then incubated at room temperature for 1 hour. After this incubation period 5 μl of 0.5M EDTA was added to all wells and the plates were incubated for a further hour at room temperature prior to reading the FP signal in an appropriate reader. For data handling FP data were converted to cGMP concentrations and then fitted using ActivityBase software. The activity of a test compound was determined as the pEC500 value which is the concentration able to increase by 5-fold basal cGMP.
`O=C(O)c1cnn(-c2cccc(-c3ccccc3CCc3ccc(OCCCN4CCOCC4)cc3)n2)c1C(F)(F)F` [Example 2, 1-(6-(2-(4-(3-morpholinopropoxy)phenethyl)phenyl)pyridin-2-yl)-5-(trifluoromethyl)-1H-pyrazole-4-carboxylic acid] was tested, and the “sGC pEC500” value was 6.19.
With `COCCOc1ccc(COc2ccccc2-c2cccc(-n3ncc(C(=O)O)c3C(F)(F)F)n2)cc1` [Example 4, 1-(6-(2-((4-(2-methoxyethoxy)benzyl)oxy)phenyl)pyridin-2-yl)-5-(trifluoromethyl)-1H-pyrazole-4-carboxylic acid] the “sGC pEC500” value was 6.6.
With `COCCCOc1ccc(COc2ccccc2-c2cccc(-n3ncc(C(=O)O)c3C(F)(F)F)n2)cc1` [Example 7, 1-(6-(2-((4-(3-methoxypropoxy)benzyl)oxy)phenyl)pyridin-2-yl)-5-(trifluoromethyl)-1H-pyrazole-4-carboxylic acid] the “sGC pEC500” value was 7.1.
`N#CCCCOc1ccc(COc2ccccc2-c2cccc(-n3ncc(C(=O)O)c3C(F)(F)F)n2)cc1` [Example 8, 1-(6-(2-((4-(3-cyanopropoxy)benzyl)oxy)phenyl)pyridin-2-yl)-5-(trifluoromethyl)-1H-pyrazole-4-carboxylic acid] was tested, and the “sGC pEC500” value was 7.28.
`Cc1cc(OCCCC(=O)O)ccc1COc1ccccc1-c1cccc(-n2ncc(C(=O)O)c2C(F)(F)F)n1` [Example 12, 1-(6-(2-((4-(3-carboxypropoxy)-2-methylbenzyl)oxy)phenyl)pyridin-2-yl)-5-(trifluoromethyl)-1H-pyrazole-4-carboxylic acid] was tested, and the “sGC pEC500” value was 6.59.
